Tests used:
[1] = Antagonist activity at P2Y12 receptor in human platelets assessed as inhibition of ADP-induced platelet aggregation by turbidimetric method
[2] = Antagonist activity at P2Y12 receptor in human platelets assessed as inhibition of ADP-induced platelet aggregation by microplate reader analysis

SMILES | IC50 [1] | IC50 [2]
CCCSc1nc(N)c2ncn([C@@H]3O[C@H](COP(=O)(O)OP(=O)(O)C(Cl)(Cl)P(=O)(O)O)[C@@H](O)[C@H]3O)c2n1 | 0.0025 µM | –
Nc1ncnc2c1ncn2[C@@H]1O[C@H](CO[P@@](=O)(O)O[P@](=O)(O)OP(=O)(O)O)[C@@H](O)[C@H]1O [ATP] | 251 µM | –
CNc1cc2[nH]c(=O)n(-c3ccc(NC(=O)NS(=O)(=O)c4ccc(Cl)s4)cc3)c(=O)c2cc1F [ELINOGREL] | – | < 10 µM
Nc1ncnc2c1ncn2[C@@H]1O[C@H](COP(=O)(O)OP(=O)(O)C(Cl)(Cl)P(=O)(O)O)[C@@H](O)[C@H]1O | 316 µM | –
O=P(O)(OC[C@H]1O[C@@H](n2cnc3c(NCC(F)(F)F)nc(SCCC(F)(F)F)nc32)[C@H](O)[C@@H]1O)OP(=O)(O)C(Cl)(Cl)P(=O)(O)O | 0.000794 µM | –
